According to US20140249135A1, “PIM KINASE INHIBITORS AND METHODS OF THEIR USE” (NOVARTIS AG, priority 2007, published 2014):

Experiments:
KDR kinase = KDR kinase (Homo sapiens, UniProt P35968); assay: KDR AlphaScreen assay; conditions: KDR IC50 (μM)
Pim1 kinase = Pim1 kinase (Homo sapiens, UniProt P11309); assay: Pim1 ATP depletion assay; format: biochemical; conditions: Pim1 ATP depletion assay; read-out: PIM1 IC50;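 note: Luciferase-luciferin luminescence readout of residual ATP after PIM1 transfers phosphate to a peptide substrate, 40 µM ATP added, reaction run to roughly half ATP consumption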
Chain of Pim1 kinase (P11309 whole entry): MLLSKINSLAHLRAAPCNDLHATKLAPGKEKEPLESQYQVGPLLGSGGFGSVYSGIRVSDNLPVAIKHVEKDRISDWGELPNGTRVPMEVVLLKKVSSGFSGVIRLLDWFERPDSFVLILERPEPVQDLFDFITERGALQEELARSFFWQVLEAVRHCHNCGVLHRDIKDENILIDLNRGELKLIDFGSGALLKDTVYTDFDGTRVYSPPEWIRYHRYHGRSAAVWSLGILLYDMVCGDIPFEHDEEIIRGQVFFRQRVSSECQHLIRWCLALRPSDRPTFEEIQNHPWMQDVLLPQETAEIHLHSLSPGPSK

Pim3 kinase = Pim3 kinase (Homo sapiens, UniProt Q86V86); assay: Pim3 ATP depletion assay; format: biochemical; conditions: read-out: PIM3 IC50
Pim2 kinase = Pim2 kinase (Homo sapiens, UniProt Q9P1W9); assay: Pim2 ATP depletion assay; format: biochemical; conditions: read-out: PIM2 IC50;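 note: Luciferase-based luminescent readout of ATP remaining after PIM2 phosphorylates a BAD peptide, final 5 nM enzyme, 4 µM ATP, 10 µM peptide, 2.5% DMSO, run to roughly half ATP consumption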
Chain of Pim2 kinase (Q9P1W9 whole entry): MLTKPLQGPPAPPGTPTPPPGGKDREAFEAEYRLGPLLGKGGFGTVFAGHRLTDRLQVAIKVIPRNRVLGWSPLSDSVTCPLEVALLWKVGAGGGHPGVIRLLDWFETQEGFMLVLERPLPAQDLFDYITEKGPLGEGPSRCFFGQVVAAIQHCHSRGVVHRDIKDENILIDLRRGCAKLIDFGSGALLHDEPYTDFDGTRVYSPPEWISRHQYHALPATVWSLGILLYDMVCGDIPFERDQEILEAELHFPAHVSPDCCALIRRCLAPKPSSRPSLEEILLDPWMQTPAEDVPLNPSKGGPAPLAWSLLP

Chain of KDR kinase (P35968 20-1356): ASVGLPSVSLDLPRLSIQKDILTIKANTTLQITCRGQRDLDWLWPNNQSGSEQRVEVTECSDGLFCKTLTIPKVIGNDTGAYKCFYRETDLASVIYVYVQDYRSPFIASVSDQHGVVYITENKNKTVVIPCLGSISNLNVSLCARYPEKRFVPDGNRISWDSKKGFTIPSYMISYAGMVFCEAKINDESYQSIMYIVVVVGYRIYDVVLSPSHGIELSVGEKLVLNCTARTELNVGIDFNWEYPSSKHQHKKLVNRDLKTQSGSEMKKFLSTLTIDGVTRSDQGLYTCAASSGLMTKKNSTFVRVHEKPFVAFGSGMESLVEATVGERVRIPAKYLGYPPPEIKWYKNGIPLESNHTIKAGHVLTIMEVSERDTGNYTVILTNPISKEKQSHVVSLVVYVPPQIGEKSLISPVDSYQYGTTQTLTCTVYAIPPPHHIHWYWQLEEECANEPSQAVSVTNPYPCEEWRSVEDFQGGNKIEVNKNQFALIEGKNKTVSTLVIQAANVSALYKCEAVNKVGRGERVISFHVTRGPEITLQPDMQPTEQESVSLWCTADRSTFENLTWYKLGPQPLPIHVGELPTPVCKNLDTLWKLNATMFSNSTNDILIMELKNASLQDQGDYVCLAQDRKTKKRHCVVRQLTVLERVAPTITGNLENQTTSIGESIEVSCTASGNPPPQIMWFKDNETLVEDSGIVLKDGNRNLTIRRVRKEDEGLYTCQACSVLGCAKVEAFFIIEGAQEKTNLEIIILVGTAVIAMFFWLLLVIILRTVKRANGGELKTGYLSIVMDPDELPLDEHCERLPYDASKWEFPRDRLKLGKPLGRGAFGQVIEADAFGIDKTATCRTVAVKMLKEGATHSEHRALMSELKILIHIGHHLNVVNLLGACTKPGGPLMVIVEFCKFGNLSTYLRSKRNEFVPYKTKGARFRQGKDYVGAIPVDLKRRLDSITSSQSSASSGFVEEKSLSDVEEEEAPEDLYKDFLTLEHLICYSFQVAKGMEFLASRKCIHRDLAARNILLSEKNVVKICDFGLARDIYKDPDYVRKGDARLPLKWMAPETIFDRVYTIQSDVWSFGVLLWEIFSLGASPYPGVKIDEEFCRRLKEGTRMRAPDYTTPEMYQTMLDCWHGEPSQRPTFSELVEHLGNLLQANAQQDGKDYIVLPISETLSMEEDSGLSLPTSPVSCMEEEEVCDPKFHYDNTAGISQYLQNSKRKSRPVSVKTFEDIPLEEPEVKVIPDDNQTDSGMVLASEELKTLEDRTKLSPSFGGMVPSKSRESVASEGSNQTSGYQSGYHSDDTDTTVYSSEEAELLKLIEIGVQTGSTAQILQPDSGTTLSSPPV

Compound	IC50 (KDR kinase) [µM]	IC50 (Pim1 kinase) [nM]	IC50 (Pim3 kinase) [nM]	IC50 (Pim2 kinase) [nM]
Nc1cnc(-c2ccc(Cl)cc2F)nc1C(=O)Nc1cnccc1N1CCC[C@H](N)C1 [Example 547, 5-Amino-2-(4-chloro-2-fluoro-phenyl)-pyrimidine-4-carboxylic acid (3-amino-3,4,5,6-tetrahydro-2H-[1,4′]bipyridinyl-3′-yl)-amide]	10 to 25	< 1000	< 1000	< 1000
COc1ccc(F)c(-c2ncc(N)c(C(=O)Nc3cnccc3N3CCC[C@H](N)C3)n2)c1 [Example 549, 5-Amino-2-(2-fluoro-5-methoxy-phenyl)-pyrimidine-4-carboxylic acid (3-amino-3,4,5,6-tetrahydro-2H-[1,4′]bipyridinyl-3′-yl)-amide]	10 to 25	< 1000	< 1000	< 1000
CCCOc1ccc(F)c(-c2ncc(N)c(C(=O)Nc3cnccc3N3CCC[C@H](N)C3)n2)c1 [Example 550, 5-Amino-2-(2-fluoro-5-propoxy-phenyl)-pyrimidine-4-carboxylic acid (3-amino-3,4,5,6-tetrahydro-2H-[1,4′]bipyridinyl-3′-yl)-amide]	10 to 25	< 1000	< 1000	< 1000
Nc1cc(-c2ccncc2NC(=O)c2nc(-c3c(F)cccc3F)ccc2N)ncn1 [Example 629, 3-amino-N-[4-(6-aminopyrimidin-4-yl)pyridin-3-yl]-6-(2,6-difluoro-phenyl)pyridine-2-carboxamide]	10 to 25	< 1000	< 1000	< 1000
Nc1ccc(C2CCCC2)nc1C(=O)Nc1cnccc1N1CCC[C@H](N)C1 [Example 644, 3-Amino-6-cyclopentyl-pyridine-2-carboxylic acid (3-amino-3,4,5,6-tetrahydro-2H-[1,4′]bipyridinyl-3′-yl)-amide]	10 to 25	< 1000	< 1000	< 1000
Nc1cnc(-c2c(F)cccc2F)nc1C(=O)Nc1cnccc1N1CCC[C@H](O)C1 [Example 648, 5-Amino-2-(2,6-difluoro-phenyl)-pyrimidine-4-carboxylic acid (3-hydroxy-3,4,5,6-tetrahydro-2H-[1,4′]bi-pyridinyl-3′-yl)-amide]	10 to 25	< 1000	< 1000	< 1000

Now from value to molecule:

IC50 (KDR kinase) [µM]	IC50 (Pim1 kinase) [nM]	IC50 (Pim3 kinase) [nM]	IC50 (Pim2 kinase) [nM]	Compound
10 to 25	< 1000	< 1000	< 1000	CC(=O)Nc1cccc(-c2ncc(N)c(C(=O)Nc3cnccc3N3CCC[C@H](N)C3)n2)c1 [Example 544, 2-(3-Acetylamino-phenyl)-5-amino-pyrimidine-4-carboxylic acid (3-amino-3,4,5,6-tetrahydro-2H-[1,4′]bipyridinyl-3′-yl)-amide]
10 to 25	< 1000	< 1000	< 1000	CCCOc1ccc(F)c(-c2ncc(N)c(C(=O)Nc3cnccc3N3CCC[C@H](N)C3)n2)c1F [Example 545, 5-Amino-2-(2,6-difluoro-3-propoxy-phenyl)-pyrimidine-4-carboxylic acid (3-amino-3,4,5,6-tetrahydro-2H-[1,4′]bipyridinyl-3′-yl)-amide]
1 to 10	< 1000	< 1000	1000 to 10000	Cc1cnc(O)cc1-c1ccncc1NC(=O)c1nc(-c2c(F)cccc2F)ccc1N [Example 612, 3-amino-6-(2,6-difluorophenyl)-N-(2′-hydroxy-5′-methyl-4,4′-bipyridin-3-yl)pyridine-2-carboxamide]
1 to 10	< 1000	< 1000	< 1000	Nc1ccc(-c2ccccc2F)nc1C(=O)Nc1cnccc1-c1ccnc(O)c1 [Example 614, 3-amino-6-(2-fluorophenyl)-N-(2′-hydroxy-4,4′-bipyridin-3-yl)pyridine-2-carboxamide]
